The values that follow come from article PMC11093223, “Cargo selective vesicle tethering: The structural basis for binding of specific cargo proteins by the Golgi tether component TBC1D23” (Science Advances, 2024).

For assay [1], the target named is T1, TBC1D23 C-terminal domain (Mus musculus, UniProt Q8K0F1).
T1 construct: TBC1D23 C-terminal domains were gel-filtered into buffer; GST (N, cleaved yes); made in house; host or cells: E. coli BL21 pLysS
The assay can be described thus: ITC of cargo and mutant syntaxin-16 peptides binding to wild-type TBC1D23 C-terminal domain. The following applies: for pKd / KD (μM): 20°C; for KD (μM): peptide (0.8-5 mM) titrated into 100 μM domain, 100 mM NaCl, 100 mM tris pH 7.4, 1 mM TCEP, mean of three independent runs. The procedure:
(§1) Experiments were performed using a Nano ITC machine from TA Instruments. TBC1D23 C-terminal domains were gel-filtered into buffer composed of 100 mM NaCl, 100 mM tris (pH 7.4), and 1 mM tris(2-carboxyethyl)phosphine (TCEP). Peptides were dissolved in the same batch of buffer. Both the wild-type and mutant C-terminal domains were concentrated to 100 μM (1.4 mg/ml) with peptide concentration varying between 0.8 and 5 mM (depending on the peptide). Peptides were titrated into TBC1D23 C-terminal domains with 20 injections of 2.4 μl each separated by 300-s intervals. Experiments were conducted at 20°C. […] Data were exported to GraphPad Prism for figure generation.
(§2) Recombinant proteins were expressed in BL21 plyS E. coli grown in shaking 2× TY medium at 37°C. Expression was induced with 0.2 mM IPTG, and cells were grown overnight at 22°C. Cells were resuspended in buffer A [250 mM NaCl, 20 mM tris (pH 7.4), and 1 mM DTT] supplemented with 4-benzenesulfonyl fluoride hydrochloride, MnCl2 and deoxyribonuclease I. Cell pellets were lysed using a cell disruptor (Constant Systems) before clarification by ultracentrifugation (104,350 relative centrifugal force) for 45 min. The supernatant was batch bound to glutathione-Sepharose resin (Cytiva) in buffer A before washing with 400 ml of buffer A and overnight cleavage of the GST-tag with thrombin at room temperature. The resultant flow through was concentrated for gel filtration Superdex 200 column (GE Healthcare) into either buffer A for crystallization or into ITC buffer [100 mM NaCl, 100 mM tris (pH 7.4), and 1 mM TCEP].

For assay [2], the target named is T2, TBC1D23 C-terminal domain I675W (Mus musculus, UniProt Q8K0F1, I675W).
T2 construct: GST (N, cleaved yes); made in house; host or cells: E. coli BL21 pLysS
In words: ITC of syntaxin-16 peptide binding to TBC1D23 C-terminal domain mutant I675W. The procedure: as §1
as §2, with “The resultant flow through was concentrated for gel filtration Superdex 200 column (GE Healthcare) into either buffer A for crystallization or into ITC buffer [100 mM NaCl, 100 mM tris (pH 7.4), and 1 mM TCEP].” left out

Assay [3] concerns the target T3, TBC1D23 C-terminal domain V626D (Mus musculus, UniProt Q8K0F1, V626D).
T3 construct: Both the wild-type and mutant C-terminal domains were concentrated to 100 μM; GST (N, cleaved yes); made in house; host or cells: E. coli BL21 pLysS
The assay can be described thus: ITC of syntaxin-16 peptide binding to TBC1D23 C-terminal domain mutant V626D. As for the experimental part: as §1
as §2, with “The resultant flow through was concentrated for gel filtration Superdex 200 column (GE Healthcare) into either buffer A for crystallization or into ITC buffer [100 mM NaCl, 100 mM tris (pH 7.4), and 1 mM TCEP].” left out

Assay [4] concerns the target T4, TBC1D23 C-terminal domain K672A (Mus musculus, UniProt Q8K0F1, K672A).
T4 construct: Both the wild-type and mutant C-terminal domains were concentrated to 100 μM; GST (N, cleaved yes); made in house; host or cells: E. coli BL21 pLysS
The assay can be described thus: ITC of syntaxin-16 peptide binding to TBC1D23 C-terminal domain mutant K672A. Conditions: mean of three runs, read-out: Mean affinity. As for the experimental part:
as §1
as §2, with “The resultant flow through was concentrated for gel filtration Superdex 200 column (GE Healthcare) into either buffer A for crystallization or into ITC buffer [100 mM NaCl, 100 mM tris (pH 7.4), and 1 mM TCEP].” left out

[5] abbreviates: pH 7.4, mean of three runs, read-out: Mean affinity.
Setting [6] is: pH 7.4, bound given for peptides without measurable binding, read-out: Affinity.
Where [7] appears, read: bound, no measurable binding, read-out: Affinity.

pKd: −log10 of the molar value. “Also recorded” adds a separate entry of the source. Like-named read-outs stand apart in the source and are kept apart here. Residues, ends and D or L forms follow the SMILES beside them.

T3 sequence (Q8K0F1 559-684 V626D limits assumed): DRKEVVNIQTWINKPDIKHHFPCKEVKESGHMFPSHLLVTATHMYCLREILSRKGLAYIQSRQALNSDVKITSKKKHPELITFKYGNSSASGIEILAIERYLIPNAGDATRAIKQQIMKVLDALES
T1 sequence (Q8K0F1 559-684 limits assumed): as the sequence (Q8K0F1 559-684 V626D limits assumed) above, with D68V counted along it
T2 sequence (Q8K0F1 559-684 I675W limits assumed): as the sequence (Q8K0F1 559-684 V626D limits assumed) above, with D68V, I117W counted along it
T4 sequence (Q8K0F1 559-684 K672A limits assumed): as the sequence (Q8K0F1 559-684 V626D limits assumed) above, with D68V, K114A counted along it

For `CC(C)[C@H](NC(=O)[C@@H](NC(=O)[C@H](Cc1ccccc1)NC(=O)[C@H](CC(=O)O)NC(=O)CNC(=O)[C@H](CC(=O)O)NC(=O)[C@H](CCC(=O)O)NC(=O)[C@H](CC(N)=O)NC(=O)[C@H](CCC(=O)O)NC(=O)[C@H](CCC(=O)O)NC(=O)[C@@H](N)CC(=O)O)[C@@H](C)O)C(=O)N[C@@H](Cc1ccc(O)cc1)C(=O)N[C@@H](CCC(=O)O)C(=O)N[C@@H](CS)C(=O)O` [NPDC1_TVY] (H-DEENEDGDFTVYEC-OH), the pKd in assay [1] (setting [5]) is 5.54.

Turning to `C[C@H](NC(=O)[C@@H](NC(=O)[C@H](CC(N)=O)NC(=O)[C@H](CC(=O)O)NC(=O)[C@@H](N)CC(=O)O)[C@@H](C)O)C(=O)N[C@@H](Cc1ccc(O)cc1)C(=O)N[C@@H](Cc1c[nH]cn1)C(=O)N[C@@H](CCCNC(=N)N)C(=O)NCC(=O)N[C@@H](Cc1ccccc1)C(=O)N[C@H](C(=O)N[C@@H](CCC(=O)O)C(=O)N[C@@H](CC(=O)O)C(=O)O)[C@@H](C)O` [STX16_LtoA] (H-DDNTAYHRGFTED-OH; N-terminus and C-terminus assumed), in assay [1], the “reduction of binding relative to wild-type syntaxin-16 peptide” value was more than 100 fold. Also, in assay [1] (setting [6]), the pKd is less than 3.70.

For the molecule `CC[C@H](C)[C@H](NC(=O)[C@@H](NC(=O)[C@H](CC(=O)O)NC(=O)[C@H](CCC(N)=O)NC(=O)[C@H](CC(=O)O)NC(=O)[C@H](CO)NC(=O)[C@H](CC(=O)O)NC(=O)[C@H](Cc1ccccc1)NC(=O)[C@H](CCC(=O)O)NC(=O)[C@H](CO)NC(=O)[C@@H](N)CCC(=O)O)[C@@H](C)O)C(=O)N[C@@H](Cc1ccccc1)C(=O)O` [KIAA0319_TIF] (H-ESEFDSDQDTIF-OH), the pKd in assay [1] (setting [5]) is 4.45.

In the case of `CSCC[C@H](NC(=O)[C@H](CC(C)C)NC(=O)[C@H](Cc1c[nH]c2ccccc12)NC(=O)[C@H](CCC(=O)O)NC(=O)[C@@H](NC(=O)[C@H](CCC(=O)O)NC(=O)[C@H](CC(N)=O)NC(=O)[C@H](CCC(=O)O)NC(=O)[C@H](CC(=O)O)NC(=O)[C@@H](NC(=O)[C@H](CCC(=O)O)NC(=O)[C@H](CCC(=O)O)NC(=O)[C@@H](N)CCC(=O)O)[C@@H](C)O)[C@@H](C)O)C(=O)O` [CIMPR_WLM] (H-EEETDENETEWLM-OH; N-terminus and C-terminus assumed), in assay [1] (setting [6]), the pKd is less than 3.70. Also, the “KD (μM)” value in assay [1] was “no binding”.

With `CC(C)C[C@H](NC(=O)[C@@H](NC(=O)[C@H](CC(N)=O)NC(=O)[C@H](C)NC(=O)[C@H](C)N)[C@@H](C)O)C(=O)N[C@@H](Cc1ccc(O)cc1)C(=O)N[C@@H](Cc1c[nH]cn1)C(=O)N[C@@H](CCCNC(=N)N)C(=O)NCC(=O)N[C@@H](Cc1ccccc1)C(=O)N[C@H](C(=O)N[C@@H](CCC(=O)O)C(=O)N[C@@H](CC(=O)O)C(=O)O)[C@@H](C)O` [STX16_DDAA] (H-AANTLYHRGFTED-OH; N-terminus and C-terminus assumed), in assay [1] (setting [6]), the pKd is less than 3.70.

For the molecule `C[C@@H](O)[C@H](NC(=O)[C@H](Cc1ccccc1)NC(=O)CNC(=O)[C@H](CCCNC(=N)N)NC(=O)[C@H](Cc1c[nH]cn1)NC(=O)[C@H](Cc1ccc(O)cc1)NC(=O)[C@H](CO)NC(=O)[C@@H](NC(=O)[C@H](CC(N)=O)NC(=O)[C@H](CC(=O)O)NC(=O)[C@@H](N)CC(=O)O)[C@@H](C)O)C(=O)N[C@@H](CCC(=O)O)C(=O)N[C@@H](CC(=O)O)C(=O)O` [STX16_LtoS] (H-DDNTSYHRGFTED-OH; N-terminus and C-terminus assumed), the pKd in assay [1] (setting [6]) is less than 3.70. Further, the “KD (μM)” value in assay [1] is “No binding”.

Take `CC(C)[C@H](NC(=O)[C@@H](NC(=O)[C@H](CCC(=O)O)NC(=O)[C@H](CCC(=O)O)NC(=O)[C@H](CC(=O)O)NC(=O)[C@H](CO)NC(=O)[C@@H](N)CC(=O)O)[C@@H](C)O)C(=O)N[C@@H](Cc1ccccc1)C(=O)N[C@@H](CCC(=O)O)C(=O)N[C@@H](CO)C(=O)O` [FAM174C_TVF] (H-DSDEETVFES-OH): the pKd in assay [1] (setting [5]) is 4.80.

For the molecule `C[C@@H](O)[C@H](NC(=O)[C@H](Cc1ccccc1)NC(=O)CNC(=O)[C@H](CCCNC(=N)N)NC(=O)[C@H](Cc1c[nH]cn1)NC(=O)[C@H](Cc1ccc(O)cc1)NC(=O)[C@H](Cc1ccccc1)NC(=O)[C@@H](NC(=O)[C@H](CC(N)=O)NC(=O)[C@H](CC(=O)O)NC(=O)[C@@H](N)CC(=O)O)[C@@H](C)O)C(=O)N[C@@H](CCC(=O)O)C(=O)N[C@@H](CC(=O)O)C(=O)O` [STX16_LtoF] (H-DDNTFYHRGFTED-OH), the pKd in assay [1] (setting [5]) was 3.82.

Turning to `CC(C)C[C@H](NC(=O)[C@@H](NC(=O)[C@H](CCC(=O)O)NC(=O)[C@H](CCC(=O)O)NC(=O)[C@@H](N)CCC(=O)O)[C@@H](C)O)C(=O)N[C@@H](Cc1ccc(O)cc1)C(=O)N[C@@H](CO)C(=O)N[C@@H](CO)C(=O)N[C@@H](CCCCN)C(=O)N[C@@H](Cc1c[nH]cn1)C(=O)O` [CPD_TLY] (H-EEETLYSSKH-OH), the pKd in assay [1] (setting [5]) is 4.97.

Turning to `CC(C)C[C@H](NC(=O)[C@H](C)NC(=O)[C@H](CC(N)=O)NC(=O)[C@H](CC(=O)O)NC(=O)[C@@H](N)CC(=O)O)C(=O)N[C@@H](Cc1ccc(O)cc1)C(=O)N[C@@H](Cc1c[nH]cn1)C(=O)N[C@@H](CCCNC(=N)N)C(=O)NCC(=O)N[C@@H](Cc1ccccc1)C(=O)N[C@H](C(=O)N[C@@H](CCC(=O)O)C(=O)N[C@@H](CC(=O)O)C(=O)O)[C@@H](C)O` [STX16_TtoA] (H-DDNALYHRGFTED-OH; N-terminus and C-terminus assumed), the pKd in assay [1] (setting [6]) was less than 3.70. In addition, in assay [1], the “KD (μM)” value is reported as “No binding”.

For the molecule `CC(C)C[C@H](NC(=O)[C@@H](NC(=O)[C@H](CC(N)=O)NC(=O)[C@H](CC(=O)O)NC(=O)[C@@H](N)CC(=O)O)[C@@H](C)O)C(=O)N[C@@H](Cc1ccc(O)cc1)C(=O)N[C@@H](Cc1c[nH]cn1)C(=O)N[C@@H](CCCNC(=N)N)C(=O)NCC(=O)N[C@@H](Cc1ccccc1)C(=O)N[C@H](C(=O)N[C@@H](CCC(=O)O)C(=O)N[C@@H](CC(=O)O)C(=O)O)[C@@H](C)O` [STX16_TLY] (H-DDNTLYHRGFTED-OH), the “KD (μM)” value is on record as “No binding” in assay [2] (20°C, pH 7.4, figure and text); “abolishes peptide binding; also recorded: No binding” in assay [3] (20°C, pH 7.4, figure and text, listed as syntaxin-16 peptide). The pKd is less than 3.70 in assay [2] (setting [7]), less than 3.70 in assay [3] (setting [7]) and 4.56 in assay [4].

Consider `CC(C)C[C@H](NC(=O)[C@@H](NC(=O)[C@H](CC(N)=O)NC(=O)[C@H](CC(=O)O)NC(=O)[C@@H](N)CC(=O)O)[C@@H](C)O)C(=O)N[C@@H](CO)C(=O)N[C@@H](Cc1c[nH]cn1)C(=O)N[C@@H](CCCNC(=N)N)C(=O)NCC(=O)N[C@@H](Cc1ccccc1)C(=O)N[C@H](C(=O)N[C@@H](CCC(=O)O)C(=O)N[C@@H](CC(=O)O)C(=O)O)[C@@H](C)O` [STX16_YtoS] (H-DDNTLSHRGFTED-OH; N-terminus and C-terminus assumed), for which the pKd in assay [1] (setting [6]) was less than 3.70. Besides, the “KD (μM)” value in assay [1] is recorded as “No binding”.

Regarding `CC(C)C[C@H](NC(=O)[C@@H](NC(=O)[C@H](CC(N)=O)NC(=O)[C@H](CC(=O)O)NC(=O)[C@@H](N)CC(=O)O)[C@@H](C)O)C(=O)N[C@@H](Cc1c[nH]c2ccccc12)C(=O)N[C@@H](Cc1c[nH]cn1)C(=O)N[C@@H](CCCNC(=N)N)C(=O)NCC(=O)N[C@@H](Cc1ccccc1)C(=O)N[C@H](C(=O)N[C@@H](CCC(=O)O)C(=O)N[C@@H](CC(=O)O)C(=O)O)[C@@H](C)O` [STX16_YtoW] (H-DDNTLWHRGFTED-OH), the pKd in assay [1] (setting [5]) is 5.25.

As for `CC(C)[C@H](NC(=O)[C@@H](NC(=O)[C@H](CO)NC(=O)[C@H](Cc1ccc(O)cc1)NC(=O)[C@@H](NC(=O)[C@@H](NC(=O)[C@H](CC(N)=O)NC(=O)[C@H](C)NC(=O)[C@@H]1CCCN1C(=O)[C@H](CC(=O)O)NC(=O)[C@@H](N)CCC(=O)O)[C@@H](C)O)C(C)C)[C@@H](C)O)C(=O)N[C@@H](CCC(=O)O)C(=O)O` [SLAMF7_TVY] (H-EDPANTVYSTVE-OH; N-terminus and C-terminus assumed), in assay [1] (setting [6]), the pKd is less than 3.70. In addition, the “KD (μM)” value in assay [1] is “no binding”.
